This note sets out measurements from article PMC9891081 (Cell, 2022).

Assay [1] deals with rabbit Cav1.1 (rCav1.1) α1 subunit (Oryctolagus cuniculus, UniProt P07293). As to the kind of experiment: cryo-EM structure. The class given is binding.
A further assay addresses human Cav1.2 (Homo sapiens, UniProt Q13936). The assay can be described thus: calcium influx assay in HEK293 cells. The class given is cell-based.
In the next assay the target is rabbit Cav1.1 α1 subunit (rabbit, UniProt P07293 1-1873). As to the kind of experiment: cryo-EM structure.
Sequence of rabbit Cav1.1 α1 subunit (P07293 whole entry): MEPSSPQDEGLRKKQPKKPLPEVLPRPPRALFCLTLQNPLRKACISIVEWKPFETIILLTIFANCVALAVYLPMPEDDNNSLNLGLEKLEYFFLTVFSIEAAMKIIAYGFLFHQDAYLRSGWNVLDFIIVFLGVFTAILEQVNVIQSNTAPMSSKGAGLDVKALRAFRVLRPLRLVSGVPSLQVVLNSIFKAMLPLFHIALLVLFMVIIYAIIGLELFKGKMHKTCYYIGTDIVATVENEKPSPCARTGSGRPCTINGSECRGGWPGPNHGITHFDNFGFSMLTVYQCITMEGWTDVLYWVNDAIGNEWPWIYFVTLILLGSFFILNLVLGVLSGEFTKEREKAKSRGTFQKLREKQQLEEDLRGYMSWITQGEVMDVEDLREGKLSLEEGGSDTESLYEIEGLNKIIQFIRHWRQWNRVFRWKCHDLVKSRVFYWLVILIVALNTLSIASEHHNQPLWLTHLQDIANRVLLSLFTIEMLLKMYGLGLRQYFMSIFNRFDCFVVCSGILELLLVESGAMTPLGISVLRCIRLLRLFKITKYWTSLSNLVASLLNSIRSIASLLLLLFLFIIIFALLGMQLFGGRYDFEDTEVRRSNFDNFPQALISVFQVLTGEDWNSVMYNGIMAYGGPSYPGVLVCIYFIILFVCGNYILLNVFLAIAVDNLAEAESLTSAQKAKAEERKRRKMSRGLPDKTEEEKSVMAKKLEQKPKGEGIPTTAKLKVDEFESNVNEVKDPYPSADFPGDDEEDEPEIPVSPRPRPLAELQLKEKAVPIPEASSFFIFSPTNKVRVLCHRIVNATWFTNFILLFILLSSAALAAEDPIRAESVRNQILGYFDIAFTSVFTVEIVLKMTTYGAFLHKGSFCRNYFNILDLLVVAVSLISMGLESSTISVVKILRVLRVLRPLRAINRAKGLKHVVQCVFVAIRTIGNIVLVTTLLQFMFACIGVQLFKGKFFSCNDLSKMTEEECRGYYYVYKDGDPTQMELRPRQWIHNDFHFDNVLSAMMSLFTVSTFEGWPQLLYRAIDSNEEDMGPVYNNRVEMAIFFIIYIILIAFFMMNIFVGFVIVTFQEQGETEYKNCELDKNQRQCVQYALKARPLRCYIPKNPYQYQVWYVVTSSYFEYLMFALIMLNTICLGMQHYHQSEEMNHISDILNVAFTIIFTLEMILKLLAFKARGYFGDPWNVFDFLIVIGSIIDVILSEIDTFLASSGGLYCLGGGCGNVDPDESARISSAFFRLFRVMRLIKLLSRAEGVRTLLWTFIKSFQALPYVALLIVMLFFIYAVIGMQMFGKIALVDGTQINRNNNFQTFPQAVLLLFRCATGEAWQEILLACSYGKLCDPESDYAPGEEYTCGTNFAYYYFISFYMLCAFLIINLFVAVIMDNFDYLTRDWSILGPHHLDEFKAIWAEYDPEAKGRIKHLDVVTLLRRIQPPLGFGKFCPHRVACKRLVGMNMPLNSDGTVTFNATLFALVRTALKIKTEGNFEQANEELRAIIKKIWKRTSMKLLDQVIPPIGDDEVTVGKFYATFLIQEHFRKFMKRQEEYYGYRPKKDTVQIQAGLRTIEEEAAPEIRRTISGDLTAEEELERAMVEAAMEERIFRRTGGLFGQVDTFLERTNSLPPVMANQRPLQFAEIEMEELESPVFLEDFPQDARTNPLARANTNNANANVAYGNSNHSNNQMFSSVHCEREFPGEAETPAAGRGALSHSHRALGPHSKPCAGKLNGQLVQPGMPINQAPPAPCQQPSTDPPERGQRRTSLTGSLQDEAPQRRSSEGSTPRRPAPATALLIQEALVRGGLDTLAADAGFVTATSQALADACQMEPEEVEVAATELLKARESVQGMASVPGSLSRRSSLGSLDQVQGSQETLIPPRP

Sequence of human Cav1.2 (Q13936 whole entry): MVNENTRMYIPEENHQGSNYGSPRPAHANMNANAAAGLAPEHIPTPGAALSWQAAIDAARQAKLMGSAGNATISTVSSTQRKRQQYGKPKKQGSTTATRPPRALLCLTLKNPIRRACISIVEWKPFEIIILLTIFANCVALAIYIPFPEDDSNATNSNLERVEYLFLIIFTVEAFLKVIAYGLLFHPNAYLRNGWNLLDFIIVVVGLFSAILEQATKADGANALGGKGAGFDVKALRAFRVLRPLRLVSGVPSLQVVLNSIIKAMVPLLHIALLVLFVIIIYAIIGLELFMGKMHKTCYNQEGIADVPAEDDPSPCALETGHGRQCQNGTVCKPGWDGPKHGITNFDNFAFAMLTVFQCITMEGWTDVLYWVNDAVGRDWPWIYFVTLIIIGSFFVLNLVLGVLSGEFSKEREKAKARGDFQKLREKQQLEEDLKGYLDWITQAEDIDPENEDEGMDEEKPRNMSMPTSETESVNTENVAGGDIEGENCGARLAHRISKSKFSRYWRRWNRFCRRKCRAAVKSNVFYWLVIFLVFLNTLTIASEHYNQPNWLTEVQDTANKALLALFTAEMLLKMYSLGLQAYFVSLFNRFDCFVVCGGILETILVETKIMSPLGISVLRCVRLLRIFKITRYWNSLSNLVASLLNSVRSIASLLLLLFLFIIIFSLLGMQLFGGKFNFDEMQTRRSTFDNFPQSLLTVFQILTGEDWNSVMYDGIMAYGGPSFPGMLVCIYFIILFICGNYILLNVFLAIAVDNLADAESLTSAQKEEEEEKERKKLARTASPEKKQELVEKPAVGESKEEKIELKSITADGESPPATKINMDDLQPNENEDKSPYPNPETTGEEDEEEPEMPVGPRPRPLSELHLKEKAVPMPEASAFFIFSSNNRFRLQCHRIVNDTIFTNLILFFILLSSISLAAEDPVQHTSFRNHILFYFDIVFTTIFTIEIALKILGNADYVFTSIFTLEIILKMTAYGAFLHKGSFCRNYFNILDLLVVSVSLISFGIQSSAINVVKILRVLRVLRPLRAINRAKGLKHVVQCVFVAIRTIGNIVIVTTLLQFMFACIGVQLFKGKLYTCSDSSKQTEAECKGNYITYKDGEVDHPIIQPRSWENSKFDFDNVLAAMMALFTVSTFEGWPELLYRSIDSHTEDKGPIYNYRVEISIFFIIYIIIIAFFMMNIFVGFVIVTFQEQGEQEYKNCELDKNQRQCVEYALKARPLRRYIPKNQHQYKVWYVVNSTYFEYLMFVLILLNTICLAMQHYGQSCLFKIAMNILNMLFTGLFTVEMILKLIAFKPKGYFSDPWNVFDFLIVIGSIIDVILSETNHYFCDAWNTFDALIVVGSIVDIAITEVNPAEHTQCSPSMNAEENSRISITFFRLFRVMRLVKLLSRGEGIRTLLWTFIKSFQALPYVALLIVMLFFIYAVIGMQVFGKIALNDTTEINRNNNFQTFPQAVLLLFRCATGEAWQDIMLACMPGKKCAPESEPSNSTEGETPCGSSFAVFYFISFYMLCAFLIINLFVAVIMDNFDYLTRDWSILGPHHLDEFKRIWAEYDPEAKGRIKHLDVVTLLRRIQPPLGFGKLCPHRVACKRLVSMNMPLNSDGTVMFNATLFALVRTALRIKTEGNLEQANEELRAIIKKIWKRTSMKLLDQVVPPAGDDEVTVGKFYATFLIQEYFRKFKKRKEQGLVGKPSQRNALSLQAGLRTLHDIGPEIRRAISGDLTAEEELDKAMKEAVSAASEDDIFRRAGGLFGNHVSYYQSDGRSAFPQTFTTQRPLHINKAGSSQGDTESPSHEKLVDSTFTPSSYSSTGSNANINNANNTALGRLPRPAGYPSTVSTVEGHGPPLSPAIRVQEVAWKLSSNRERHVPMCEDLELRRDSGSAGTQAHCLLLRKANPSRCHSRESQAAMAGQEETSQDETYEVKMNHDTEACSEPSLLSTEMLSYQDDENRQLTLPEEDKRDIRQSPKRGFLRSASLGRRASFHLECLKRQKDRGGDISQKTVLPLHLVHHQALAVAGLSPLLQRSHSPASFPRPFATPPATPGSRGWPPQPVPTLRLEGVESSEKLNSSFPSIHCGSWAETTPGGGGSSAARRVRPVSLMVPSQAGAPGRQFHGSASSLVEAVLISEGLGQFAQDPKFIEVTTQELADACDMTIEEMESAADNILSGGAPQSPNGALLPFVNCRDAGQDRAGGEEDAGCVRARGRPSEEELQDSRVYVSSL

Turning to `CCCCc1oc2ccccc2c1C(=O)c1cc(I)c(OCCN(CC)CC)c(I)c1` [AMIO, amiodarone], the “cryo-EM structure (2.8 Å)” value in assay [1] is “AMIO occupies the same site as for DHP compounds, i.e., the III-IV fenestration enclosed by S5III, S6III, and S6IV”.

Regarding `C#C[C@]1(C)[C@@H](O)[C@@H](COP(=O)(N[C@@H](C)C(=O)OC(C)C)Oc2ccccc2)O[C@H]1n1ccc(=O)[nH]c1=O` (stereo partly drawn) [MNI-1], at human Cav1.2, the IC50 is greater than 100 µM.

B1: rabbit γ1 subunit (natural protein, UniProt P19518 1-222, looked up)
chain: MSPTEAPKVRVTLFCILVGIVLAMTAVVSDHWAVLSPHMENHNTTCEAAHFGLWRICTKRIALGEDRSCGPITLPGEKNCSYFRHFNPGESSEIFEFTTQKEYSISAAAISVFSLGFLIMGTICALMAFRKKRDYLLRPASMFYVFAGLCLFVSLEVMRQSVKRMIDSEDTVWIEYYYSWSFACACAAFVLLFLGGISLLLFSLPRMPQNPWESCMDAEPEH
For B1, the binding result with rabbit Cav1.1 α1 subunit is “binds”.
